Tests used:
[1] = tested on: petals of carnation flowers; assay: In vivo prevention of ethylene formation in carnation petals after incubation with ACC; settings: 1 mM taken up transpirationally
Description: This Example illustrates the use of the glucose ester of ferulic acid for in vivo prevention of ethylene formation in carnations.
The glucose ester of ferulic acid (1 mM), isolated as described in Example 1, was taken up transpirationally into petals of carnation flowers. Ethylene production was determined as a percentage of the ethylene produced by untreated control petals at various times after incubation with ACC.

[2] = Radical scavenging in a chemical system; settings: tests with a chemical system
[3] = tested on: Microsomes from senescing carnation flowers; assay: Inhibition of ethylene formation in vitro in carnation microsomes; type: biochemical
Description: This Example illustrates the inhibition of ethylene formation in vitro by the glucose ester of ferulic acid.
Microsomes from senescing carnation flowers were treated with varying quantities of the glucose ester of ferulic acid, isolated as described in Example 1, and the production of ethylene was determined as a percentage of the control production of ethylene in the absence of added ferulic acid ester

lipoxygenase (LOX) [4] = assay: Lipoxygenase activity, bean cotyledon membrane and cytosol; type: biochemical
Excerpt: (§1) This Example illustrates the inhibition of lipoxygenase (LOX) activity by the glucose ester of ferulic acid.

lipoxygenase (LOX) [5] = assay: Lipoxygenase activity, carnation microsomal membranes; type: biochemical
Excerpt: as §1

SMILES: COc1cc(/C=C/C(=O)O[C@@H]2O[C@H](CO)[C@@H](O)[C@H](O)[C@H]2O)ccc1O [glucose ester of ferulic acid]
- % Inhibition of ethylene production ([1]; 12 hrs after treatment): 100%
- % Inhibition of ethylene production ([1]; 16 hrs after treatment): 97.3%
- % Inhibition of ethylene production ([1]; 21 hrs after treatment): 90.4%
- % Inhibition of ethylene production ([1]; 26 hrs after treatment): 81.7%
- radical scavenger activity (in words) [2]: shown promise as a full radial scavenger
- Ethylene Production ([3]; Control + 10 μM of Additive): 0.518 ± 0.019 n1.100 μg^-1 protein h^-1
- Ethylene Production % Control ([3]; Control + 10 μM of Additive): 53.9%
- Ethylene Production ([3]; Control + 50 μM of Additive): 0.014 ± 0.005 n1.100 μg^-1 protein h^-1
- Ethylene Production % Control ([3]; Control + 50 μM of Additive): 2.0%
- Ethylene Production ([3]; Control + 100 μM of Additive): 0 n1.100 μg^-1 protein h^-1
- Ethylene Production % Control ([3]; Control + 100 μM of Additive): 0%
- ethylene formation (in words) ([3]; concentration of 100 μM): zero
- effect against LOX from other plant systems including bean cotyledons (in words) (lipoxygenase (LOX) [4]): effective
- Lipoxygenase activity (% of control) (lipoxygenase (LOX) [4]; 10 μg cytosol protein of 9 d bean cotyledon, 50 μM): 48.4 % of control
- Lipoxygenase activity (% of control) (lipoxygenase (LOX) [4]; 10 μg cytosol protein of 9 d bean cotyledon, 100 μM): 35.9 % of control
- Lipoxygenase activity (% of control) (lipoxygenase (LOX) [4]; 60 μg membrane protein of 9 d bean cotyledon, 50 μM): 46.3 % of control
- Lipoxygenase activity (% of control) (lipoxygenase (LOX) [4]; 60 μg membrane protein of 9 d bean cotyledon, 100 μM): 37.8 % of control
- effect on enzyme activity in membrane and cytosol preparations (in words) (lipoxygenase (LOX) [4]; 100 μm concentrations, all experiments): caused an inhibition of enzyme activity
- inhibition of lipoxygenase activity derived from carnation (in words) (lipoxygenase (LOX) [5]; 40 μM solution): almost complete inhibition
- Lipoxygenase activity (% of control) (lipoxygenase (LOX) [5]; 100 μg membrane protein from Stage IV carnation, 40 μM): 1.8 % of control

From patent US5087417A, “Control of senescence in fruits, vegetables and flowers” (University of Waterloo, priority 1986, dated 1992)
